Assay results taken from patent publication US20250152564A1, “PROPYLENE KETONE-CONTAINING BIOINHIBITOR, PREPARATION METHOD THEREFOR, AND USE THEREOF” (SHANGHAI HANSOH BIOMEDICAL CO., LTD., priority 2022, published 2025).

Key:
[1] = target: FGFR1 (Homo sapiens (Human), UniProt P11362); assay: TR-FRET kinase inhibition assay, FGFR1; format: biochemical; conditions: ATP Km concentration (30 μM)
Method: (§1) To measure the IC50 values of the compounds against FGFR1, FGFR2, FGFR3, FGFR4, and FGFR2 V564F at ATP Km concentrations by TR-FRET method.
(§2) TR-FRET (time-resolved fluorescence resonance energy transfer) method was used to detect the inhibitory activity of the compounds on FGFR1, FGFR2, FGFR3, FGFR4, and FGFR2 V564F kinase region fragments. The highest detection concentration of the compounds in 5 kinase experiments was 1000 nM, which was diluted in 3 folds, with a total of 11 concentrations (1000 nM to 0.017 nM). A kinase buffer (50 mM HEPES pH 7.5, 1 mM EGTA, 10 mM MgCl2, 2 mM DTT, and 0.01% Tween-20) was used to prepare 4× enzyme solution, 4× compound solutions diluted in gradient, and a 2×ATP/Peptide substrate solution. To a 384-well plate, 2.5 μL of enzyme solution and 2.5 μL of diluted […] compound solution were added, and 5 μL of 2×ATP/Peptide substrate solution was then added. After reacting at room temperature for 60 minutes for FGFR1, FGFR2, FGFR3, and FGFR2 V564F kinases, and 120 minutes for FGFR4 kinase, 10 μL of a 2× termination and detection mixed liquid prepared with 1×LANCE detection buffer with an EDTA concentration of 20 mM and a Europium-anti-phosphotyrosine (PT66) concentration of 2 nM was added to each well of the plate. After reacting at room temperature for 60 minutes for FGFR1, FGFR2, FGFR3, and FGFR4, and 30 minutes for FGFR2 V564F, the fluorescence signal value in each well of the plate was measured by a microplate reader.
(§3) 1) Inhibition rate (%): Calculation was performed on the raw data (665 nm/620 nm reading ratio) according to the following formula to obtain the inhibition rate. Inhibition rate %=[(mean value in positive control well−value in sample well)/(mean value in positive control well−mean value in negative control well)]×100, wherein the positive control well was a reaction well without a compound […], and the negative control well was a reaction wells without an enzyme.
(§4) 2) Curve fitting: Log(inhibitor) vs. response—Variable slope (four parameters) in GraphPad Prism 6 was used for fitting equation analysis of the compound concentration and the corresponding inhibition rate, and the curve was fitted to obtain the IC50 values of the compounds.

[2] = target: FGFR2 (Homo sapiens (Human), UniProt P21802); assay: TR-FRET kinase inhibition assay, FGFR2; format: biochemical; conditions: ATP Km concentration (30 μM)
Method: as §1, §2, §3, §4

[3] = target: FGFR2 V564F (Homo sapiens (Human), UniProt P21802, V564F); assay: TR-FRET kinase inhibition assay, FGFR2 V564F; format: biochemical; conditions: ATP Km concentration (20 μM)
Method: as §1, §2, §3, §4

[4] = system: BaF3 FGFR2-BICC1 V564F cells; assay: CellTiter-Glo cell proliferation inhibition, BaF3 FGFR2-BICC1 V564F; format: cell-based; conditions: Mus musculus, 72 h, read-out: BaF3 FGFR2-BICC1 V564F inhibitory activity IC50
Method: (§5) To evaluate inhibitory effects of the compounds on the proliferation of NCI-H716, SNU-16 and BaF3-FGFR2-BICC1 V564F cells by cell proliferation inhibition experiments.
(§6) CellTiter-Glo method was used to detect inhibitory effects of the compounds on the proliferation of NCI-H716, SNU-16 and BaF3 FGFR2-BICC1 V564F cells. The highest detection concentration of the compounds was 1000 nM, which was diluted in 3 folds, with a total of 9 concentrations (1000 nM to 0.15 nM). After the cells were plated at an appropriate density, compounds were added the next day and incubated for 72 h before detection using the […] detection kit.
as §3, with “(%):” for “(%): Calculation was performed on the raw data (665 nm/620 nm reading ratio) according to the following formula to obtain the inhibition rate.”
as §4

[5] = Pharmacokinetic experiment in SD rats after oral administration; format: in vivo; conditions: 5 mg/kg, plasma
Method: To study the pharmacokinetic behavior of the compounds of the present invention in the rat body (plasma) after oral administration at a dose of 5 mg/kg using SD rats as test animals.
3 SD rats/group, male, from Shanghai Jiesijie Experimental Animal Co., Ltd., animal production license number (SCXK (Shanghai) 2013-0006 N0.311620400001794).
PO, 10% solutol HS15-0.5% CMC-Na was dissolved by ultrasound and prepared into a clear solution or homogeneous suspension.
3 SD rats/group, male; p.o. respectively at a dose of 5 mg/kg and an administration volume of 10 mL/kg after the […] were fasted overnight.
After oral administration to rats, at 0.25, 0.5, 1, 2, 4, 6, 8 and 24 hours, 0.2 mL of blood was collected from the jugular vein, placed in an EDTA-K2 test tube, centrifuged at 6000 rpm for 6 min at 4° C. to separate the plasma, which was stored at −80° C.
1) 100 μL of acetonitrile was added to 20 μL of plasma sample for pelleting, and it was mixed and centrifuged at 3500×g for 5-20 min.
2) The treated supernatant solution was taken and subjected to LC/MS/MS to analyze the concentrations of the test compounds. LC/MS/MS analysis instrument: AB Sciex API 4000 Qtrap.
• Liquid phase conditions: Shimadzu LC-20AD pump • Chromatographic column: Waters Xbridge C18 5 μm, 4.6×50 mm mobile phase: liquid A was 0.1% aqueous formic acid solution, and liquid B was methanol • Flow rate: 1.0 mL/min • Elution time: 0-4.0 min, the eluent was as follows: […]

[6] = system: NCI-H716 cells; assay: CellTiter-Glo cell proliferation inhibition, NCI-H716; format: cell-based; conditions: Homo sapiens, 72 h, read-out: NCI-H716 cell proliferation inhibition rate IC50
Method: as §5, §6
as §3, with “(%):” for “(%): Calculation was performed on the raw data (665 nm/620 nm reading ratio) according to the following formula to obtain the inhibition rate.”
as §4

Sequence of FGFR2 V564F (P21802 481-770 V564F): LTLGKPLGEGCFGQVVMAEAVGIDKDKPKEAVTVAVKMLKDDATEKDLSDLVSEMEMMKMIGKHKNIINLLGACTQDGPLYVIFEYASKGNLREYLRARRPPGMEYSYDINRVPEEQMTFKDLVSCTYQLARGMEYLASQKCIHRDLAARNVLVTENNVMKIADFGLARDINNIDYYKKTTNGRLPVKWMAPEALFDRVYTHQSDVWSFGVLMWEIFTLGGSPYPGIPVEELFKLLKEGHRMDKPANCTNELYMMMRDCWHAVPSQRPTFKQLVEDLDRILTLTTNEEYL
Sequence of FGFR1 (P11362 478-767): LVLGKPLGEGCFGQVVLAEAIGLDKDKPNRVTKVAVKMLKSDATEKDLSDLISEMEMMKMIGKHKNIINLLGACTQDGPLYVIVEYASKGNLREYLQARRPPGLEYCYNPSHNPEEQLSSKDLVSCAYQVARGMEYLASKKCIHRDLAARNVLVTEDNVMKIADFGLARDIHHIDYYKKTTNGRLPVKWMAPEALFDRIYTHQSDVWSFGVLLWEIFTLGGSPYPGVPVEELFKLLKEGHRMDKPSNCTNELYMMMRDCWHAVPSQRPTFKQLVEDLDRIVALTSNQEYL
Sequence of FGFR2 (P21802 481-770): as the sequence (P21802 481-770 V564F) above, with F84V counted along it

Row | Compound | IC50 [1] [nM] | IC50 [2] [nM] | IC50 [3] [nM] | IC50 [4] [nM] | AUC(0-t) ([5]; male, Sprague-Dawley (SD), rat, po, read-out: Area under the curve AUC0-t) [ng·h/mL] | AUC(0-inf) ([5]; male, Sprague-Dawley (SD), rat, po, read-out: Area under the curve AUC0-∞) [ng·h/mL] | half-life ([5]; male, Sprague-Dawley (SD), rat, po, read-out: Half-life t1/2 (converted)) [h] | MRT ([5]; male, Sprague-Dawley (SD), rat, po, read-out: Mean residence time MRT) [h] | Cmax ([5]; male, Sprague-Dawley (SD), rat, po, read-out: Plasma concentration Cmax) [ng/mL] | Time to peak tmax ([5]; p.o.) [h] | IC50 [6] [nM]
1 | C=CC(=O)N1CC[C@H](n2nc(C#Cc3cc4ncn(C5CC5)c4cc3Cl)c3c(N)ncc(C(C)=O)c32)C1 [Example 44, (S)-1-(3-(7-acetyl-4-amino-3-((6-chloro-1-cyclopropyl-1H-benzo[d]imidazol-5-yl)ethynyl)-1H-pyrazolo[4,3-c]pyridin-1-yl)pyrrolidin-1-yl)prop-2-en-1-one] | 4.4 | 2.2 | 0.4 | 0.8 |  |  |  |  |  |  | 
2 | C=CC(=O)N1CC[C@H](n2nc(C#Cc3cc4nc(C)n(C5CC5)c4cc3Cl)c3c(N)ncc(C(C)=O)c32)C1 [Example 54, (S)-1-(3-(7-acetyl-4-amino-3-((6-chloro-1-cyclopropyl-2-methyl-1H-benzo[d]imidazol-5-yl)ethynyl)-1H-pyrazolo[4,3-c]pyridin-1-yl)pyrrolidin-1-yl)prop-2-en-1-one] | 5.5 | 3.4 | 0.9 | 2.2 |  |  |  |  |  |  | 
3 | C=CC(=O)N1CC[C@H](n2nc(C#Cc3c(F)cc4c(ncn4C)c3F)c3c(N)ncc(-c4cscn4)c32)C1 [Example 29, (S)-1-(3-(4-amino-3-((4,6-difluoro-1-methyl-1H-benzo[d]imidazol-5-yl)ethynyl)-7-(thiazol-4-yl)-1H-pyrazolo[4,3-c]pyridin-1-yl)pyrrolidin-1-yl)prop-2-en-1-one] | 7.1 | 1.5 | 3.6 |  |  |  |  |  |  |  | 
4 | [2H]C([2H])([2H])n1cnc2cc(C#Cc3nn([C@H]4CCN(C(=O)C=C)C4)c4c(-c5nccs5)cnc(N)c34)c(F)cc21 [Example 25, (S)-1-(3-(4-amino-3-((6-fluoro-1-(methyl-d3)-1Hbenzo[d]imidazol-5-yl)ethynyl)-7-(thiazol-2-yl)-1Hpyrazolo[4,3-c]pyridin-1-yl)pyrrolidin-1-yl)prop-2-en-1-one] | 5.7 | 1.5 | 0.6 |  |  |  |  |  |  |  | 
5 | C=CC(=O)N1CC[C@H](n2nc(C#Cc3ccc4c(c3)ncn4C3CC3)c3c(N)ncc(C(=O)CC)c32)C1 [Example 39, (S)-1-(3-(4-amino-3-((1-cyclopropyl-1H-benzo[d]imidazol-5-yl)ethynyl)-7-propionyl-1H-pyrazolo[4,3-c]pyridin-1-yl)pyrrolidin-1-yl)prop-2-en-1-one] | 6.1 | 1.7 | 0.6 | 2.2 | 4190 | 4240 | 1 | 2.63 | 1250 | 2 | 
6 | C=CC(=O)N1CC[C@H](n2nc(C#Cc3ccc4c(c3)ncn4C)c3c(N)ncc(C(=O)C(C)C)c32)C1 [Example 66] | 6.8 | 2.9 | 0.8 | 2.8 |  |  |  |  |  |  | 
7 | C=CC(=O)N1CC[C@H](n2nc(C#Cc3ccc4c(c3)ncn4CC)c3c(N)ncc(C(=O)CC)c32)C1 [Example 57, (S)-1-(3-(4-amino-3-((1-ethyl-1H-benzo[d]imidazol-5-yl)ethynyl)-7-propionyl-1H-pyrazolo[4,3-c]pyridin-1-yl)pyrrolidin-1-yl)prop-2-en-1-one] | 5.6 | 1.3 | 0.5 | 2.5 |  |  |  |  |  |  | 
8 | C=CC(=O)N1CC[C@H](n2nc(C#Cc3cc4ncn(C5CC5)c4cc3F)c3c(N)ncc(-c4nccs4)c32)C1 [Example 34, (S)-1-(3-(4-amino-3-((1-cyclopropyl-6-fluoro-1H-benzo[d]imidazol-5-yl)ethynyl)-7-(thiazol-2-yl)-1H-pyrazolo[4,3-c]pyridin-1-yl)pyrrolidin-1-yl)prop-2-en-1-one] | 6.6 | 3.2 | 2.2 | 2.9 |  |  |  |  |  |  | 
9 | C=CC(=O)N1CC[C@H](n2nc(C#Cc3cc4nc(C)n(C5CC5)c4cc3F)c3c(N)ncc(C(C)=O)c32)C1 [Example 55, (S)-1-(3-(7-acetyl-4-amino-3-((1-cyclopropyl-6-fluoro-2-methyl-1H-benzo[d]imidazol-5-yl)ethynyl)-1H-pyrazolo[4,3-c]pyridin-1-yl)pyrrolidin-1-yl)prop-2-en-1-one] | 4.4 | 2.8 | 1 | 2.2 |  |  |  |  |  |  | 
10 | C=CC(=O)N1CC[C@H](n2nc(C#Cc3c(F)cc4c(ncn4C)c3F)c3c(N)ncc(C(C)=O)c32)C1 [Example 31, (S)-1-(3-(7-acetyl-4-amino-3-((4,6-difluoro-1-methyl-1H-benzo[d]imidazol-5-yl)ethynyl)-1H-pyrazolo[4,3-c]pyridin-1-yl)pyrrolidin-1-yl)prop-2-en-1-one] | 3.5 | 1.2 | 0.8 | 1.4 |  |  |  |  |  |  | 
11 | C=CC(=O)N1CC[C@H](n2nc(C#Cc3cc4ncn(C)c4cc3F)c3c(N)ncc(C)c32)C1 [Example 18, (S)-1-(3-(4-amino-3-((6-fluoro-1-methyl-1H-benzo[d]imidazol-5-yl)ethynyl)-7-methyl-1H-pyrazolo[4,3-c]pyridin-1-yl)pyrrolidin-1-yl)prop-2-en-1-one] |  |  |  |  |  |  |  |  |  |  | 1.82
12 | C=CC(=O)N1CC[C@H](n2nc(C#Cc3cc4ncn(CC)c4cc3F)c3c(N)ncc(-c4nccs4)c32)C1 [Example 22, (S)-1-(3-(4-amino-3-((1-ethyl-6-fluoro-1H-benzo[d]imidazol-5-yl)ethynyl)-7-(thiazol-2-yl)-1H-pyrazolo[4,3-c]pyridin-1-yl)pyrrolidin-1-yl)prop-2-en-1-one] | 6.5 | 1.6 | 0.8 |  |  |  |  |  |  |  | 
13 | C=CC(=O)N1CC[C@H](n2nc(C#Cc3cc4ncn(C5CC5)c4cc3Cl)c3c(N)ncc(C(=O)C4CC4)c32)C1 [Example 46, (S)-1-(3-(4-amino-3-((6-chloro-1-cyclopropyl-1H-benzo[d]imidazol-5-yl)ethynyl)-7-(cyclopropanecarbonyl)-1H-pyrazolo[4,3-c]pyridin-1-yl)pyrrolidin-1-yl)prop-2-en-1-one] | 5.2 | 3.5 | 1.1 | 0.2 |  |  |  |  |  |  | 
